Article PMC9697976, “Giardia lamblia G6PD::6PGL Fused Protein Inhibitors Decrease Trophozoite Viability: A New Alternative against Giardiasis” (International Journal of Molecular Sciences, 2022)
pIC50: −log10 of the molar value. Where two headings read alike, the source gives them in different places.

Columns and labels:
G6PD::6PGL fused enzyme [1] = molecular target: T1, G6PD::6PGL fused enzyme (Giardia intestinalis, UniProt A8BWM5); assay: Enzymatic inhibition assay (concentration-dependent inactivation) of G6PD::6PGL; format: biochemical, Giardia lamblia; conditions: for inhibition at 200 µM: read-out: Loss of initial G6PD::6PGL activity
T1 sequence (A8BWM5 entry or part of it): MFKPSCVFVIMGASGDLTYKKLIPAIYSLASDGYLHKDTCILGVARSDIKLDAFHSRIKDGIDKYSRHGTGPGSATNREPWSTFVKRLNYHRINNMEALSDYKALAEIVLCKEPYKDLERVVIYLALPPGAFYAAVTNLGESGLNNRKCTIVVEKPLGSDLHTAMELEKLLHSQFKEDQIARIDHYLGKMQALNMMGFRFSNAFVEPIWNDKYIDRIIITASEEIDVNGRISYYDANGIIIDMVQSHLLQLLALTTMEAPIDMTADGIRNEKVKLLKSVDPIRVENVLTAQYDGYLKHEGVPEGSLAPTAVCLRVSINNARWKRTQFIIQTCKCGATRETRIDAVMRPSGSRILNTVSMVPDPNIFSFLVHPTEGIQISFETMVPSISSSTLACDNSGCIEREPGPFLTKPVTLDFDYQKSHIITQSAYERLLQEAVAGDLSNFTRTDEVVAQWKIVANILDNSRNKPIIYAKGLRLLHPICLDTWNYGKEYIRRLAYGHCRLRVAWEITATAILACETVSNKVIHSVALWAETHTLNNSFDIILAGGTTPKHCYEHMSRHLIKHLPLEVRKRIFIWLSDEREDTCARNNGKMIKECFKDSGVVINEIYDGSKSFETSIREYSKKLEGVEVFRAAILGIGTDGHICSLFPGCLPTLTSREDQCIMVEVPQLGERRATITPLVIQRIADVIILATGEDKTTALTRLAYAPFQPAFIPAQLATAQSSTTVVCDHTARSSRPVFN
Description: G6PD::6PGL protein was adjusted at 0.2 mg/mL and incubated in the presence of different concentrations of compounds (0–800 μM). After incubation, aliquots were withdrawn from the samples, and the residual activity was determined. The G6PD::6PGL without compounds was used to determine 100% activity. The assays were carried out in triplicate, and the data represent the mean ± standard error.
The IC50 values of the four selected compounds were determined. […] The assay was performed using a protein concentration of 0.2 mg/mL in buffer T (100 mM Tris–HCl, 30 mM MgCl2, pH 8) with different concentrations of the compounds (0 to 800 µM). The protein was incubated at 37 °C for 2 h after the residual activity of the G6PD domain was measured. The data were plotted as percent activity, where 100% was taken as the enzyme’s activity without compounds. All values were adjusted to the Boltzmann sigmoid equation in the Origin 8.0® program (Northampton, MA, USA) to obtain the IC50 value expressed in µM units.

G6PD::6PGL fused enzyme [2] = molecular target: T1, G6PD::6PGL fused enzyme; assay: Screening of in-house library on G6PD::6PGL activity at 400 µM; format: biochemical, Giardia lamblia
Description: The effects of 120 organic molecules from the in-house chemical library of compounds, which were synthesized in the Medicinal Chemistry Laboratory at the Pharmacy Faculty of the Autonomous University Morelos State, include mainly aromatic and non-aromatic heterocyclic compounds with heteroatoms such as nitrogen, oxygen, and sulfur, which were evaluated as possible specific inhibitors of G6PD::6PGL. The assay was carried out following what was reported by Martinez-Rosas et al.; each compound was dissolved in dimethyl sulfoxide (DMSO), and the recombinant enzyme G6PD::6PGL (0.2 mg/mL) was incubated with the compounds at a concentration of 400 µM, for 2 h, at 37 °C. The residual enzymatic activity of the G6PD domain was measured following the spectrophotometric NADP^+ reduction at 340 nm with the standard reaction mixture. Activity data were plotted as percent residual activity, where 100% activity was taken from enzyme samples incubated without a compound.

HsG6PD [3] = molecular target: T2, HsG6PD (Homo sapiens, UniProt P11413); assay: Effect of compounds on HsG6PD activity at 400 µM; format: biochemical
T2 sequence (P11413 whole entry): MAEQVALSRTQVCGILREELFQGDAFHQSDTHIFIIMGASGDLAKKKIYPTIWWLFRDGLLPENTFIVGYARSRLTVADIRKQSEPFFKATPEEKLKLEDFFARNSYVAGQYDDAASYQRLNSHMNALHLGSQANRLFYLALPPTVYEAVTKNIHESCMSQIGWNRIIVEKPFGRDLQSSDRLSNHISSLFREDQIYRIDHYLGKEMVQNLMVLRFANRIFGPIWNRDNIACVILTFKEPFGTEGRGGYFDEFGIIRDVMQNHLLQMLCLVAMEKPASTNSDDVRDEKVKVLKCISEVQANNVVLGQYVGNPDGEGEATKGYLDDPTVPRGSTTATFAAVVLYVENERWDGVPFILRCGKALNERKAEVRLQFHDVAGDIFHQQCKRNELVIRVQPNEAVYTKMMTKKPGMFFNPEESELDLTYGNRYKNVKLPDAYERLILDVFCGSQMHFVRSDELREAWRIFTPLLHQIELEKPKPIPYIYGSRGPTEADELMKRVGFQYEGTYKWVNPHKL
Text: Based on the above, we decided to evaluate the effect in vitro of the compounds in the inactivation of the G6PD::6PGL enzyme.

Caco-2 cells [4] = assay: in vitro; conditions: 250 µM compound
Description: (§1) An XTT cell proliferation assay determined the viability.
(§2) The cytotoxicity assay was performed using human cell lines Caco-2 (ATCC HTB-37) and HT29 (ATCC HHTB-38) with a Cell Proliferation Kit II (XTT; St Louis, MO, USA). A cell suspension of 2 × 10^5 cells/mL was prepared in Dulbecco’s modified Eagle’s (DMEM) medium, supplemented with 10% inactivated fetal bovine serum and 1% penicillin/streptomycin (5000 U/mL), and 100 µL portions of the suspension were added to the wells of 96-well plates. The plates were incubated for 24 h at 37 °C in an atmosphere of 5% CO2. The medium in each well was replaced with 100 µL medium with compounds at 500, 250, 150, 75, 32, and 16 µM. After 48 h of incubation at 37 °C in an atmosphere of 5% CO2, the viability of cells was determined. The medium in each well was gently replaced with 100 µL of fresh medium, 50 µL of XTT labeling mixture was added per well, the mixture was incubated for four h at 37 °C and 5% CO2, and the absorbance at 495 nm was measured. Each compound was assayed in triplicate via three independent experiments. The CCI50 values were determined using the nonlinear regression function of GraphPad Prism version 6.04 for Windows.

G6PD::6PGL fused enzyme [5] = molecular target: T1, G6PD::6PGL fused enzyme; assay: Second-order inactivation constant (k2) of G6PD::6PGL; format: biochemical, Giardia lamblia; conditions: for kinact/KI: read-out: Second-order inactivation constant (k2)
Description: At the indicated times, aliquots were withdrawn from the samples and assayed for residual activity. Initial velocity was fitted to determine each compound’s pseudo-first-order inactivation constants (k1). […] All experiments were performed in triplicate.
Inactivation assays were performed to determine the rate of each to form the enzyme–inhibitor complex. First, the pseudo-first-order constants (k1) were obtained by incubating 0.2 mg/mL of pure G6PD::6PGL enzyme and different concentrations of compound (0 to 500 µM) at 37 °C in time intervals (0–120 min). After the incubation period, enzyme activity was measured spectrophotometrically following the reduction of NADP^+ at 340 nm for each experimental condition. The results were expressed in terms of the activity percentage against each compound’s concentration. The residual activity data were fitted to a mono-exponential decay model, using the equation AR=A0 e^−kt , where AR is the residual activity at different times, A0 is the activity at the initial time, and k is the pseudo-first-order inactivation constant (min^−1). Subsequently, the constants obtained were plotted against the corresponding inhibitor concentration. A linear regression model was applied to obtain the second-order inactivation constant k2 (M^−1 s^−1).

HT29 cells [6] = assay: In vitro cytotoxicity, XTT assay, HT29; conditions: for Decrease of HT29 cell viability: 250 µM compound; for Selectivity index (SI), CC50 HT29 / IC50 G. lamblia: ratio of CC50/IC50 between mammalian cells and trophozoites
Description: as §1, §2

G. lamblia trophozoites = assay: Antigiardial activity, trophozoite viability (trypan blue); format: cell-based; conditions: Giardia duodenalis, 48 h, read-out: IC50 G. lamblia (trophozoite viability)
Description: The trophozoites were incubated in the presence of compounds for 48 h at 37 °C with increasing concentrations of each of the compounds, and later the viability of the trophozoites was determined. The values represent mean ± standard deviation from three independent experiments, and standard errors of the mean were lower than 5%.
The Giardia lamblia WB strain (ATCC number 30957) was grown and cultivated in a modified TYI-S-33 medium supplemented with 10% fetal bovine serum at 37 °C. G. lamblia was harvested from a confluent culture by chilling the tubes on ice for 5–10 min to detach cells, followed by centrifugation at 800× g for 5 min. For the antigiardial activity assay, 5 × 10^4 trophozoites of G. lamblia were incubated with different concentrations of the compounds (31, 62, 125, 250, and 500 µM) in a final volume of 1.5 mL and then incubated for 48 h at 37 °C. After incubation, 75 µL of the treated trophozoites were subcultured individually for another 48 h in a fresh medium without compounds. At the end of this period, the viable trophozoites were counted using trypan blue. Each compound was assayed in three independent experiments. Appropriate controls were tested in each assay, including a sample without compounds and another with only 2% DMSO.

in vitro = conditions: human, Caco-2
Description: as §1, §2

[7] = In vitro cytotoxicity, XTT assay, HT29; conditions: human
Description: as §1, §2

HsG6PD [8] = molecular target: T2, HsG6PD; design: method as in earlier work; conditions: ref 24 (Ramirez-Nava et al.); cited from earlier work
Caco-2 cells [9] = conditions: cited from earlier work
HT29 cells [10] = conditions: nitazoxanide; cited from earlier work
[11] = read-out: G6PD::6PGL Inhibition (%) at (400 μM)
[12] = read-out: G6PD::6PGL IC50, 0.2 mg/mL enzyme, 0–800 μM compound, 2 h, 37 °C
[13] = 400 μM compound, read-out: HsG6PD Inhibition (%) at (400 μM)
[14] = read-out: G6PD::6PGL Inhibition (%) at (400 μM), 400 μM compound, 0.2 mg/mL enzyme, 2 h, 37 °C

Structure (SMILES) | pIC50 (G6PD::6PGL fused enzyme [1]) | inhibition at 200 µM (G6PD::6PGL fused enzyme [1]; 2 h) | Decrease of Caco-2 cell viability (Caco-2 cells [4]) | Decrease of HT29 cell viability (HT29 cells [6]) | pIC50 (G6PD::6PGL fused enzyme [1]; [12]) | inhibition at 400 µM (HsG6PD [3]; [13]) | CC50 at 48 h (in vitro) | selectivity ratio at 48 h (in vitro) | kinact/KI (G6PD::6PGL fused enzyme [5]) | Selectivity index (SI), CC50 HT29 / IC50 G. lamblia (HT29 cells [6]) | pIC50 (G. lamblia trophozoites; 37 °C, WB strain) | inhibition at 400 µM (G6PD::6PGL fused enzyme [2]; [14]) | other results
O=C1CC(=O)NC(=O)N1 [Barbituric acid, reference compound] | < 3.30 | – | – | – | – | – | – | – | – | – | – | – | inhibition at 400 µM (G6PD::6PGL fused enzyme [2]; [11]): 0%
O=C1NC(=O)C(=Cc2ccc(OCc3ccccc3)cc2)C(=O)N1 [CMC-1] | 4.15 | 100% | approximately 20% | 25% | – | – | – | – | – | – | – | – | inhibition at 400 µM (HsG6PD [3]; read-out: HsG6PD Inhibition (%) at (400 μM), 400 μM compound): ~34%; Second-order inactivation constant (k2) (G6PD::6PGL fused enzyme [5]; 0.2 mg/mL enzyme, 37 °C, 0–120 min): 0.97 M⁻¹ s⁻¹; pIC50 (G. lamblia trophozoites): 4.62; inhibition at 400 µM (G6PD::6PGL fused enzyme [2]; [11]): 98%
CCCCOc1ccc(NC(=O)Nc2nc([N+](=O)[O-])cs2)cc1 [CNZ-7] | – | 60% | approximately 20% | 25% | 3.82 | 68% | 640 µM | 74 | 0.97 M⁻¹ s⁻¹ | 60 | 5.06 | 85% | CC50 at 48 h ([7]; HT29 cells): 529 µM; pIC50 (HsG6PD [8]): 3.56
O=C(Nc1ccc([N+](=O)[O-])cc1)Nc1nc([N+](=O)[O-])cs1 [CNZ-8] | – | 80% | approximately 20% | 25% | 4.10 | 43% | 633 µM | 41 | 0.6 M⁻¹ s⁻¹ | 41 | 4.82 | 75% | CC50 at 48 h [7]: 622 µM
CCCCCC(=O)Nc1nc([N+](=O)[O-])cs1 [FLP-2] | – | 40% | – | – | 3.59 | ~20% | 3180 µM | 208 | 0.82 M⁻¹ s⁻¹ | 125 | 4.82 | 89% | CC50 at 48 h ([7]; HT29 cells): 1910 µM
Cc1ncc([N+](=O)[O-])n1CCO [Metronidazole, reference compound] | – | – | – | – | – | – | – | – | – | – | 5.32 | – | CC50 Caco-2 (literature IC50) (Caco-2 cells [9]; metronidazole): 19 µM
CC(=O)Oc1ccccc1C(=O)Nc1ncc([N+](=O)[O-])s1 [Nitazoxanide, reference compound] | 4.11 | – | – | – | – | – | – | 7 | – | 12 | – | 100% | pIC50 (G. lamblia trophozoites): 5.38; CC50 HT29 (literature IC50) (HT29 cells [10]): > 50 µM; CC50 Caco-2 (literature IC50) (Caco-2 cells [9]; nitazoxanide): 26.8 µM
